Test system: E. coli O157:H7
Experiment: Solid-interface AMBR biosensor measurement of bacterial growth in 384 well plate
Assay type: cell-based
Conditions: antibiotic above the MIC in the surrounding media, 0.5 μg/ml gentamicin
Source text: In previous AMBR applications at air-water and/or oil-water interfaces, the rotation period of the sensor slows down in response to bacterial growth; however, on solid interfaces there is an additional “dip” in the beginning of the data. Typical results for measuring bacterial growth, using the solid interface AMBR method are shown in FIG. 11, where the initial speeding up and then slowing down can be seen. […] This is true since the dip (or the slowing down) was not seen in wells with the same amount of bacteria, but that lacked nutrients (performed in PBS buffer), or contained antibiotics above the minimum inhibition concentrations.
Laboratory measurements have established that the speeding up happens with motile and non-motile, gram-negative and gram-positive cells, and with rod-like and coccal bacteria. […]
Anti-E. coli O157 functionalized, 2.8 μm diameter magnetic particles (20 μl, Invitrogen 710-03) were mixed with bacteria diluted to 10^4 CFU/ml (0.9 ml), and allowed to incubate (10 min at 37° C.) with end-over-end agitation. […] For colony counting, the samples were diluted appropriately, plated on a MH plate and the colonies were counted 18 hours later to obtain accurate bacterial concentrations and magnetic separation capture efficiencies. […]

gentamicin
change in rotational period of AMBR biosensor (bacterial growth response): no change in rotational period

— US12480846B2, “Multi-mode separation for target detection and cell growth monitoring” (THE REGENTS OF THE UNIVERSITY OF MICHIGAN, priority 2012, dated 2025)
